In one data set the test system is Namalwa wild type cells. As to the kind of experiment: MTT cytotoxicity assay in Namalwa wild type cells. It is filed as cell-based. The conditions noted are these: 72 h incubation, read-out: IC50 (cytotoxicity, cell viability by MTT). On the procedure: (§1) Namalwa 21 nM VCR (multidrug-resistant cells by exposure to vincristine (21 nM), and Namalwa wild type (ATCC CRL-1432) cells were cultured in ATCC-formulated RPMI-1640 medium with L-glutamine (2 mM), sodium bicarbonate (1.5 g L-1), glucose (4.5 g L^−1), HEPES (10 mM) and sodium pyruvate (1.0 mM). The media was supplemented with penicillin (100 U mL^−1) and streptomycin (100 μg mL^−1, Mediatech) and fetal bovine serum (FBS, 10%, BenchMark). Cells were maintained in a humid 5% CO2 atmosphere at 37° C. and subcultured every 2-3 days.
(§2) Cytotoxicity of PCTX and compounds 2, 2& 10, 15 and 17 was determined using the MTT assay. On the day of exposure, exponentially growing cells were plated at 25,000 cells/well in 160 μL in 96-well tissue culture plates (Nunc). Cells were then incubated with medium (control) or compounds (20 μL, 10× in cell culture medium) at the indicated final concentrations (0.1-1000 nM). At 68 h, MTT reagent (5 mg mL^−1 in PBS, 20 μL/well) was added to each well. The plate was further incubated at 37° C. At 72 h the plate was centrifuged at 1400 rpm for 10 min at 4° C. and supernatants were carefully removed. DMSO (100 μL/well) was added to dissolve the water-insoluble formazan salt. The absorbance was measured at 545 nm using a microplate reader (BMG Labtech). Data points were collected in triplicate and expressed as normalized values for untreated control cells (100%). […]

Data set [1] has as its system multidrug-resistant Namalwa cell line (MDR+ve). As to the kind of experiment: MTT cytotoxicity assay in multidrug-resistant Namalwa cells. The conditions noted are these: 72 h. The class given is cell-based. On the procedure:
as §1, §2
A general note: Formazan colour is commonly taken as a measure of viable cells.

Usually IC50 stands for the concentration that inhibits the measured activity by half. Take `CC(=O)O[C@H]1C(=O)[C@]2(C)[C@@H](O)CC3OC[C@@]3(OC(C)=O)[C@H]2[C@H](OC(=O)c2ccccc2)[C@]2(O)C[C@H](OC(=O)[C@H](OC(=O)CCC(=O)NCCOCCOCCNC(=O)OCC3C4CCC#CCCC43)[C@@H](NC(=O)c3ccccc3)c3ccccc3)C(C)=C1C2(C)C` (stereo partly drawn) [Compound 2, (4S,4aS,6R,9S,11S,12S,12aR,12bS)-9-(((19R)-19-((S)-benzamido(phenyl)methyl)-1-(bicyclo[6.1.0]non-4-yn-9-yl)-3,14,17-trioxo-2,7,10,18-tetraoxa-4,13-diazaicosan-20-oyl)oxy)-12-(benzoyloxy)-4,11-dihydroxy-4a,8,13,13-tetramethyl-5-oxo-3,4,4a,5,6,9,10,11,12,12a-decahydro-1H-7,11-methanocyclodeca[3,4]benzo[1,2-b]oxete-6,12b(2aH)-diyl diacetate]: the IC50 with Namalwa wild type cells was 26 nM. The “activity (cytotoxicity) in MDR+ve cell line” value in data set [1] is “no appreciable activity”.
On to `CC(=O)O[C@H]1C(=O)[C@@]2(C)[C@H]([C@H](OC(=O)c3ccccc3)[C@]3(O)C[C@H](OC(=O)[C@H](O)[C@@H](NC(=O)c4ccccc4)c4ccccc4)C(C)=C1C3(C)C)[C@]1(OC(C)=O)CO[C@@H]1C[C@@H]2O` [PCTX, Paclitaxel, reference compound], for which, in the data set on Namalwa wild type cells, the IC50 is 2 nM.

For the origin of these results see patent publication US12503506B2, “Dual drug antibody-drug conjugates” (priority 2019, dated 2025).
